How the values were obtained:
[1] = system: chondrocytes; details: cited from earlier work
[2] = system: human chondrocytes; assay: Redifferentiation of expanded human chondrocytes in pellet culture, real-time quantitative PCR of differentiation indexes; format: cell-based
Experimental: Human articular cartilage samples were collected from the hip of 3 patients with no history of joint disease, undergoing joint replacement, following femoral neck fracture.
The cartilage samples were harvested aseptically and digested with 0.15% type II collagenase for 22 hours to isolate primary chondrocytes. The cells were washed and resuspended in Dulbecco's modified Eagles medium (DMEM) supplemented with 10% fetal bovine serum, 4′500 mg/l D-Glucose, nonessential amino acids, 1 mM sodium pyruvate, 100 mM HEPES buffer, 100 U/ml penicillin, 100 μg/ml streptomycin, and 0.29 mg/ml L-glutamine (control medium, CTR). Chondrocytes were seeded into tissue culture flasks at approximately 10^4 cells/cm^2 and cultured in a humidified 37° C./5% CO^2 incubator.
After approximately 10 days, when the cells were confluent, first passage cells (P1) were detached using 0.25% trypsin/1 mM EDTA and replated at 5×10^3 cells/cm^2. After one more week, when the cells reached again confluency, second passage (P2) cells were trypsinised and cultured in pellets. Throughout the expansion phase, cells were cultured in control medium, with or without the addition of 5 ng/ml of Fibroblast Growth Factor-2 (FGF-2).
The cells were suspended at 5×10^5 cells/0.5 ml of serum-free medium (SF) consisting of DMEM supplemented with ITS+1 (containing 10 μg/ml insulin, 5.5 μg/ml transferrin, 5 ng/ml selenium, 0.5 mg/ml bovine serum albumin, 4.7 μg/ml linoleic acid), 0.1 mM ascorbic-acid 2-Phosphate, and 1.25 μg/ml human serum albumin. This suspension was centrifuged at less than 8000 rpm for 15 seconds in polypropylene conical tubes to form spherical pellets which were then statically incubated in a humidified 37° C./5% CO^2 incubator for 24 hours. […]
P, alone or in combination with A and/or D and/or H and/or T, was supplemented to the SF medium during 3D culture of the human chondrocyte cell pellets. After two weeks, the differentiation indexes (CII/CI and Agg/Ver) were assessed. […]
Further, for each primary culture, 2 pellets were formed per experimental group and assessed histologically and for quantitative PCR as described below.
Theoretical Basis. Real-time quantitative PCR monitors the degradation of a sequence-specific, dual-labeled fluorescent probe after each cycle of PCR amplification. […] After subtraction of the background fluorescence, calculated during the first 15 amplification cycles, the measured fluorescence is graphed as an amplification plot. […] The Ct value is correlated to input target mRNA amount: a larger starting quantity of mRNA target results in a lower number of PCR cycles required for the reporter fluorescent emission to reach the threshold, and therefore a lower Ct value. […]

[3] = SF medium supplemented with P, 1 μg/ml, two weeks, vs control culture

## FGF-2: fibroblast growth factor-2, growth factor added during monolayer expansion of chondrocytes
[1]; chondrocytes expanded in the presence of FGF-2, versus freshly isolated (primary) chondrocytes
  cartilaginous tissue formed after seeding onto three-dimensional polymer scaffolds: histologically and biochemically comparable to that obtain using freshly isolated chondrocytes
[1]; monolayer expansion in the presence of FGF-2
  formation of thick F-actin structures during monolayer expansion: inhibits

## CCCCC[C@H](O)/C=C/[C@H]1[C@H](O)CC(=O)[C@@H]1C/C=C\CCCC(=O)O [P, prostaglandin E2]
[2]; [3]
  Agg/Ver differentiation index, increase compared to the control culture: at least 2 orders of magnitude
  CII/CI differentiation index, increase compared to the control culture: at least 2 orders of magnitude
[2]; chondrocytes expanded with 5 ng/ml FGF-2, compared with those expanded without FGF-2
  effects on differentiation indexes and CI mRNA on chondrocytes expanded with FGF-2: comparable
[2]; pellets, SF medium supplemented with P
  expression of CI (collagen type I) mRNA: decrease
